Test results published in PubChem BioAssay (NCI).
“And” between values parts separate entries of the source, which are not always exact repeats. Equal values may be shown once.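 Values below derive from 48-hour exposures of cells grown in 96-well plates, with endpoints linearly interpolated between the two concentrations bracketing the appropriate inhibition level. GI50 = concentration required for 50% inhibition of growth. At the TGI there is no net growth.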

Columns and labels:
Assay in all cases: DTP human tumour cell line panel, 48 h
[1] = system: A549 NSCLC
[2] = system: K-562 leukemia
[3] = system: NCI/ADR-RES ovarian
[4] = system: OVCAR-3 ovarian
[5] = system: OVCAR-5 ovarian
[6] = system: OVCAR-8 ovarian
[7] = system: RXF 393 renal
[8] = system: SF-539 CNS
[9] = system: SK-MEL-5 melanoma
[10] = system: T-47D breast

Row | Compound | GI50 [1] | TGI [1] | GI50 [2] | TGI [2] | GI50 [3] | TGI [3] | GI50 [4] | TGI [4] | GI50 [5] | TGI [5] | GI50 [6] | TGI [6] | GI50 [7] | TGI [7] | GI50 [8] | TGI [8] | GI50 [9] | TGI [9] | GI50 [10] | TGI [10]
1 | CCOC(=O)c1ccc(NC(=O)NC2=NCCS2)cc1 | 0.584 µM | > 100 µM | 10.5 µM | > 100 µM | 0.505 µM | > 49.6 µM | 0.289 µM | 0.897 µM | 99.1 µM | > 100 µM | 1.98 µM | > 100 µM | 0.429 µM | 3.3 µM | 0.381 µM | 2.27 µM | 2.7 µM | > 100 µM | 4.13 µM | > 100 µM
2 | Clc1ccc(/C=C/c2ccc3ccccc3n2)cc1 | 1.75 µM | > 100 µM | 0.439 µM | > 100 µM | 6.27 µM | 29.4 µM | 0.917 µM | 6.73 µM | 4.36 µM | > 100 µM | 1.06 µM | > 100 µM | 0.648 µM | > 74.7 µM | 0.428 µM | 13.8 µM | 0.551 µM | > 100 µM | 5.16 µM | > 100 µM
3 | C=C(CN1CCc2c([nH]c3ccccc23)C1)c1ccc(C(=O)Nc2ccccc2N)cc1 | 4.85 µM | 32 µM | 1.01 µM | 17 µM | 1.51 µM | 17.1 µM | 18.4 µM | 29.1 µM | 7.15 µM | 31.6 µM | 1.9 µM | 14.7 µM | 4.27 µM | 12.8 µM | 2.76 µM | 9.81 µM | 2.61 µM | 6.88 µM | 8.5 µM | 50 µM
4 | C=C1C(=O)O[C@H]2[C@H]1CC/C(COC(=O)N[C@H]1C[C@H](O[C@H]3C[C@](O)(C(=O)CO)Cc4c(O)c5c(c(O)c43)C(=O)c3c(OC)cccc3C5=O)O[C@@H](C)[C@H]1O)=C\CC[C@@]1(C)O[C@@H]21 | > 50 µM | > 50 µM | 1.58 µM | 11.4 µM | > 50 µM | > 50 µM | 2.2 µM | 7.8 µM | 6.91 µM | 18 µM | 6.99 µM | 18 µM | 1.22 µM | 3.85 µM | 2.37 µM | 8.43 µM | 8.1 µM | 18.1 µM | 2.27 µM | 10.4 µM
5 | Cc1cc(CCl)c(C)cc1CCl | 1.66 µM | 5.09 µM | 1.06 µM | > 33.2 µM | 2.07 µM | 7.77 µM | 1.76 µM | 4.04 µM | 2.94 µM | 8.62 µM | 3.21 µM | 17.4 µM | 2.93 µM | 8.72 µM | 1.02 µM | 4.26 µM | 4.19 µM | 17.2 µM | 0.733 µM | 2.31 µM
6 | COc1ccc(C(=O)c2sc3nc(-c4ccccc4OC)ccc3c2N)cc1OC | 5.85 µM | > 100 µM | 5.1 µM | > 100 µM | 5.05 µM | > 100 µM | 18.3 µM | > 100 µM | > 100 µM | > 100 µM | 4.02 µM | > 100 µM | 3.42 µM | 70 µM | 20 µM | > 100 µM | 2.05 µM | 5.68 µM | 2.95 µM | > 100 µM
7 | COc1ccc2c(c1)CN([C@@H](C)[C@H]1CC[C@H]3[C@@H]4CC[C@H]5C[C@@H](O)CC[C@]5(C)[C@H]4CC[C@]13C)CO2 |  | 4.51 µM |  | 2.37 µM |  | 18.6 µM |  | 18 µM |  | 13.5 µM |  | > 24.1 µM |  | 2.74 µM |  | 3.33 µM |  | 3.28 µM |  | 18.3 µM
8 | CN(C)N1C(=O)SCC(c2ccccc2)(c2ccccc2)C1=O |  | > 100 µM |  | > 100 µM |  | > 100 µM |  | > 100 µM |  | > 100 µM |  | > 100 µM |  | > 100 µM |  | > 100 µM |  | > 100 µM |  | > 100 µM
9 | Cn1cc(-c2cc(-c3cn(C)c4ccc(Cl)cc34)[nH]n2)c2cc(Cl)ccc21 | 3.24 µM | 14.4 µM | 2.78 µM | 5.98 µM | 2.25 µM | 6.59 µM | 4.41 µM | 40.6 µM | 3.11 µM | 13 µM | 4.03 µM | 19.8 µM | 3.03 µM | 16.2 µM | 1.81 µM | 3.46 µM | 1.79 µM | 3.6 µM | 4.06 µM | 20.7 µM
10 | COc1cc(F)ccc1-c1cc(Nc2cc(CS(C)(=N)=O)ccn2)ncc1F (configuration not stated) | 0.105 µM | > 100 µM | 0.264 µM | > 100 µM | 0.166 µM | > 36.6 µM | 0.0803 µM | > 100 µM | 0.0488 µM | > 100 µM | 0.0914 µM | > 100 µM | 0.0221 µM | 0.0536 µM | 0.0366 µM | 0.272 µM | 0.0385 µM | 14.3 µM | 0.121 µM | 
11 | CCCCCCNCCCNc1c2cc(OC)ccc2nc2cccc([N+](=O)[O-])c12 | 0.213 µM | 0.393 µM and 1.08 µM | 0.121 µM | 0.489 µM and 0.352 µM | 0.555 µM | 2.41 µM and 3.65 µM | 0.309 µM | 0.297 µM and 1.05 µM | 0.19 µM | 0.383 µM and 0.794 µM | 0.236 µM and 0.105 µM | 2.45 µM and 0.644 µM |  | 0.111 µM | 0.239 µM | 1.18 µM and 0.616 µM | 0.135 µM | 2.01 µM and 0.279 µM | 0.35 µM | 0.931 µM and 2.49 µM
12 | Nc1nc(N)c2cc(Sc3ccc4ccccc4c3)ccc2n1 |  | 12 µM |  | 1.88 µM |  | 4.35 µM |  | 8.63 µM |  | 10.4 µM |  | 2.84 µM |  | 4.62 µM |  | 5.04 µM |  | 2.24 µM |  | 4.04 µM
13 | CCCc1nc(Cl)nc(Cl)c1Cl |  | 6.59 µM |  | 0.118 µM |  | > 22.4 µM |  | 0.534 µM |  | 1.74 µM |  | 0.637 µM |  | 0.798 µM |  | 2.94 µM |  | 3.21 µM |  | 4.49 µM
14 | C=C1C(=O)OC2C1CCC(C)C1(O)C=CC(=O)C21C (configuration not stated) |  | > 10 µM |  | > 10 µM |  | > 10 µM |  | > 10 µM |  |  |  | > 10 µM |  | > 10 µM |  | > 10 µM |  | > 10 µM |  | > 10 µM
